The source of these data is patent USRE37781E1, “Substituted cyclic carbonyls and derivatives thereof useful as retroviral protease inhibitors” (DuPont Pharmaceuticals Company, priority 1991, dated 2002).

Data set [1] concerns HIV-1 (RF) in MT-2 cells. Description: microbe, parasite or virus in culture. The class given is cell-based. The conditions noted are these: Human immunodeficiency virus 1, MT2, 48 h, Table 2d, read-out: IC90. The method in brief: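 Read-out: gag and pol viral RNA captured by 5′-biotinylated oligonucleotides on streptavidin-coated wells, detected with alkaline phosphatase-linked reporter oligonucleotides, calibrated against BH10 in vitro transcripts. Virus stocks (RF, MN, IIIB) come from H9 cultures; MT-2 host cells kept in RPMI 1640, 5% FCS.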

For data set [2], the target named is single-chain tethered dimer of HIV protease (Human immunodeficiency virus 1, UniProt P04585). The experiment in a line: biochemical. The arrangement: fused on or other part: A second copy of the same protease unit is joined to the first by a short peptide tether, giving one polypeptide. The class given is biochemical.
Where [3] appears, read: read-out: HPLC K1; Table 2d; class symbols.
Where [4] appears, read: read-out: HPLC K1; Table 2d; HIV protease inhibition, HPLC method.

pKi: −log10 of the molar value. Where two headings read alike, the source gives them in different places.

For the molecule `O=C1NC(Cc2ccccc2)C(O)C(O)C(Cc2ccccc2)N1Cc1cccc(CO)c1` (stereo not drawn) [15WI], the melting point (as a rule, the temperature, or range, at which the solid turns liquid) lay within 176 to 177 °C. For the same molecule, in data set [1] (class symbols), the IC90 (usually the concentration needed for an effect of 90%) is < 10 µg/mL. Further, the pKi in data set [2] (setting [3]) was > 8.00.

For the molecule `O=C1N(Cc2ccc3[nH]ccc3c2)C(Cc2ccccc2)C(O)C(O)C(Cc2ccccc2)N1Cc1ccc2[nH]ccc2c1` (stereo not drawn) [15DE], the melting point was 170 °C (dec.). Further, the IC90 in data set [1] (HIV RNA assay) is < 10 µg/mL. In addition, the pKi in data set [2] (setting [4]) is > 8.00.

On to `O=C1N(Cc2cccc(-c3nnn[nH]3)c2)C(Cc2ccccc2)C(O)C(O)C(Cc2ccccc2)N1CC1CC1` (stereo not drawn) [9U], for which the melting point was determined as 171.6 °C. The IC90 in data set [1] (class symbols) is < 10 µg/mL. The pKi in data set [2] (setting [3]) is > 8.00.

Turning to `O=C1N(Cc2ccoc2)C(Cc2ccccc2)C(O)C(O)C(Cc2ccccc2)N1Cc1ccoc1` (stereo not drawn) [Example 15FN], the melting point is 152.5 to 153 °C. The IC90 in data set [1] (HIV RNA assay, HIV-1 infected MT-2 cells) is < 10 µg/mL. Also, the pKi in data set [2] (read-out: HPLC K1; HIV protease inhibition, HPLC method; Table 2d) was > 8.00.

The molecule `CNc1cccc(CN2C(=O)N(Cc3cccc(NC)c3)C(Cc3ccccc3)C(O)C(O)C2Cc2ccccc2)c1` (stereo not drawn) [15D] yielded a melting point of 180.3 °C. The IC90 in data set [1] (class symbols) is < 10 µg/mL. In addition, the pKi in data set [2] (setting [3]) was > 8.00.

The molecule `CCN(CC)C(=O)c1cccc(CN2C(=O)N(Cc3cccc(CO)c3)C(Cc3ccccc3)C(O)C(O)C2Cc2ccccc2)c1` (stereo not drawn) [15WJ] displayed a melting point of 88.9 to 90 °C. For the same molecule, the IC90 in data set [1] (class symbols) is < 10 µg/mL. The pKi in data set [2] (setting [3]) is > 8.00.

On to `NC(=NO)c1cccc(CN2C(=O)NC(Cc3ccccc3)C(O)C(O)C2Cc2ccccc2)c1` (stereo not drawn) [15AT], for which the melting point fell in the range of 172 to 179 °C. Further, in data set [1] (HIV RNA assay), the IC90 is < 10 µg/mL. Further, the pKi in data set [2] (setting [4]) was > 8.00.

Take `NC(=NO)c1ccc(CN2C(=O)N(Cc3ccc(CO)cc3)C(Cc3ccccc3)C(O)C(O)C2Cc2ccccc2)cc1` (stereo not drawn) [15AI]: the melting point is 215 °C. Also, the IC90 in data set [1] (HIV RNA assay) is < 10 µg/mL. The pKi in data set [2] (setting [4]) is 6.00 to 8.00.

`CNC(=O)c1cccc(CN2C(=O)N(Cc3cccc(C(=O)OC)c3)C(Cc3ccccc3)C(O)C(O)C2Cc2ccccc2)c1` (stereo not drawn) [11G] returned a melting point of 158 to 161 °C. The IC90 in data set [1] (class symbols) was < 10 µg/mL. Also, the pKi in data set [2] (setting [3]) is > 8.00.

As to `N#Cc1cc(CN2C(=O)N(Cc3cccc(-c4cc[nH]n4)c3)C(Cc3ccccc3)C(O)C(O)C2Cc2ccccc2)ccc1F` (stereo not drawn) [Example 15CF], the melting point was in the range of 118 to 120 °C. In addition, in data set [1] (HIV RNA assay), the IC90 is < 10 µg/mL. The pKi in data set [2] (setting [4]) was > 8.00.

`CCC(O)CN1C(=O)N(CC(O)CC)C(Cc2ccccc2)C(O)C(O)C1Cc1ccccc1` (stereo not drawn) [15VN] showed a melting point of 99.2 °C. The IC90 in data set [1] (class symbols) was > 50 µg/mL. Moreover, in data set [2] (setting [3]), the pKi was < 6.00.

`O=C1N(Cc2cccc(CCl)c2)C(Cc2ccccc2)C(O)C(O)C(Cc2ccccc2)N1Cc1cccc(CCl)c1` (stereo not drawn) [Example 9S] displayed a melting point of 156 to 157 °C. Further, the IC90 in data set [1] (class symbols) was < 10 µg/mL. Further, the pKi in data set [2] (setting [3]) was 6.00 to 8.00.

Turning to `O=C1N(Cc2ccc(O)c(O)c2)C(Cc2ccccc2)C(O)C(O)C(Cc2ccccc2)N1CC1CC1` (stereo not drawn) [15AG], the melting point was 141 °C. Also, in data set [1] (HIV RNA assay), the IC90 is < 10 µg/mL. The pKi in data set [2] (setting [4]) is > 8.00.

The molecule `O=C1N(Cc2cccc(OCCN3CCOCC3)c2)C(Cc2ccccc2)C(O)C(O)C(Cc2ccccc2)N1Cc1cccc(OCCN2CCOCC2)c1` (stereo not drawn) [Example 15YG] showed a melting point of 110 to 112 °C. For the same molecule, the IC90 in data set [1] (HIV RNA assay) was < 10 µg/mL. In data set [2] (setting [4]), the pKi was 6.00 to 8.00.

Consider `CON=Cc1cccc(CN2C(=O)N(Cc3cccc(C=NOC)c3)C(Cc3ccccc3)C(O)C(O)C2Cc2ccccc2)c1` (stereo not drawn) [10D], for which the melting point was 183 to 185 °C. Also, in data set [1] (class symbols), the IC90 is > 100 µg/mL. For the same molecule, the pKi in data set [2] (setting [3]) is 6.00 to 8.00.
